From PMC7932537, “Quantitative profiling of protease specificity” (PLoS Computational Biology, 2021)

Legend:
MMP-9 [1] = target: MMP-9 (Homo sapiens, UniProt P14780); assay: K(obs) of individual phage substrates (set of 1369); assay type: biochemical; settings: MMP9; individual phage substrate of the set of 1369 peptides; dash in sequence marks cleavage position
MMP-9 [2] = assay: Substrate phage display with NGS: relative probability (RP) of P3-P1' tetramer clusters; assay type: biochemical, human; settings: MMP9; RP of the substrate's P3-P1' tetramer, substrate phage display with NGS;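 also: ratio of tetramer probability after protease selection to that in naive phage library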
MMP-2 = target: T1, MMP-2 (Homo sapiens, UniProt P08253); assay: K(obs) of individual phage substrates (set of 1369); assay type: biochemical; settings: MMP2; individual phage substrate from the set of 1369 peptides; hyphen in the sequence marks the cleavage position
T1 sequence (P08253 110-660): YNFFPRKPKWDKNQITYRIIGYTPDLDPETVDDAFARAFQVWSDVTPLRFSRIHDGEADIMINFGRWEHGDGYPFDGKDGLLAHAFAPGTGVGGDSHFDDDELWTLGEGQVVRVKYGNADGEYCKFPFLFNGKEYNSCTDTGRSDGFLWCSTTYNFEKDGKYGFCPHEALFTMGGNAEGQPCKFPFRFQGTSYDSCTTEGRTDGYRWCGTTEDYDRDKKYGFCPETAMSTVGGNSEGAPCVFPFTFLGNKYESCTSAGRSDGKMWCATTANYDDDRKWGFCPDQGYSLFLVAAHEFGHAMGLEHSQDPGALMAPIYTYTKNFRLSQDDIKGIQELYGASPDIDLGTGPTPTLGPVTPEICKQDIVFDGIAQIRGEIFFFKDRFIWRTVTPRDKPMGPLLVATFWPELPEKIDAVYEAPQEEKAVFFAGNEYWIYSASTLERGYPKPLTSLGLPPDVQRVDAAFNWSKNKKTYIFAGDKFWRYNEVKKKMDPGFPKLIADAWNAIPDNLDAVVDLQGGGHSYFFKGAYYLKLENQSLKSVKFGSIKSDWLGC

MMP-9 (Homo sapiens, UniProt P14780), sequence (P14780 94-707): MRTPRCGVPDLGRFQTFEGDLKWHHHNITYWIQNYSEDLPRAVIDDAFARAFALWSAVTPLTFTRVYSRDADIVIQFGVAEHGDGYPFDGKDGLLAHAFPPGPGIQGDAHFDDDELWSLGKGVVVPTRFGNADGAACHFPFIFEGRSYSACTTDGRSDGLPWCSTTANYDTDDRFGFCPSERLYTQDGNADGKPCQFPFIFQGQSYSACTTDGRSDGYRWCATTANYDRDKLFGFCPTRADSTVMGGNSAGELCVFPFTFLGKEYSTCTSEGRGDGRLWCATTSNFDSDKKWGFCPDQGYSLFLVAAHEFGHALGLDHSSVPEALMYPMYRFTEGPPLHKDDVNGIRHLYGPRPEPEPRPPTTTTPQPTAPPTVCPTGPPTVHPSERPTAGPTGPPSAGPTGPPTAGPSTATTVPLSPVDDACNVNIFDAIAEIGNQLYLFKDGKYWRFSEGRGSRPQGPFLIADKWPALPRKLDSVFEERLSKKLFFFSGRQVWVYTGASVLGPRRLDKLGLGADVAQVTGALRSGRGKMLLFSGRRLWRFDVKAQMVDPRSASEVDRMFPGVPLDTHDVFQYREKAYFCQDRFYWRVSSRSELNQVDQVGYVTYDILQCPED

## SVPST-LTASG
MMP-9 [1]
  Kobs: 5269.78 M⁻¹ s⁻¹
MMP-9 [2]
  relative probability (RP): 36.3405
MMP-2
  Kobs: 12792.1 M⁻¹ s⁻¹

## SYPRA-YTASG
MMP-9 [1]
  Kobs: 12792.1 M⁻¹ s⁻¹
MMP-9 [2]
  relative probability (RP): 46.2238
MMP-2
  Kobs: 12792.1 M⁻¹ s⁻¹

## TDIGE-ITASG
MMP-9 [1]
  Kobs: 0 M⁻¹ s⁻¹
MMP-9 [2]
  relative probability (RP): 0.4519
MMP-2
  Kobs: 6131.32 M⁻¹ s⁻¹

## TGPKL-ITASG
MMP-9 [1]
  Kobs: 6396.07 M⁻¹ s⁻¹
MMP-9 [2]
  relative probability (RP): 25.2703
MMP-2
  Kobs: 1071.29 M⁻¹ s⁻¹

## TIPSW-STASG
MMP-9 [1]
  Kobs: 2476.66 M⁻¹ s⁻¹
MMP-9 [2]
  relative probability (RP): 17.8128
MMP-2
  Kobs: 5461.43 M⁻¹ s⁻¹

## TLIRY-LTASG
MMP-9 [1]
  Kobs: 12792.1 M⁻¹ s⁻¹
MMP-9 [2]
  relative probability (RP): 33.2843
MMP-2
  Kobs: 10866.7 M⁻¹ s⁻¹

## TMLLA-LTASG
MMP-9 [1]
  Kobs: 654.784 M⁻¹ s⁻¹
MMP-9 [2]
  relative probability (RP): 6.729
MMP-2
  Kobs: 12792.1 M⁻¹ s⁻¹

## TNVFW-YTASG
MMP-9 [1]
  Kobs: 10866.7 M⁻¹ s⁻¹
MMP-9 [2]
  relative probability (RP): 29.291
MMP-2
  Kobs: 2409.72 M⁻¹ s⁻¹

## TPPSS-LTASG
MMP-9 [1]
  Kobs: 12792.1 M⁻¹ s⁻¹
MMP-9 [2]
  relative probability (RP): 46.2595
MMP-2
  Kobs: 12792.1 M⁻¹ s⁻¹

## TPPVE-LTASG
MMP-9 [1]
  Kobs: 12792.1 M⁻¹ s⁻¹
MMP-9 [2]
  relative probability (RP): 35.1044
MMP-2
  Kobs: 12792.1 M⁻¹ s⁻¹

## TQPSP-FTASG
MMP-9 [1]
  Kobs: 9740.44 M⁻¹ s⁻¹
MMP-9 [2]
  relative probability (RP): 37.3217
MMP-2
  Kobs: 12792.1 M⁻¹ s⁻¹

## TSARK-LTASG
MMP-9 [1]
  Kobs: 1112.44 M⁻¹ s⁻¹
MMP-9 [2]
  relative probability (RP): 0
MMP-2
  Kobs: 323.705 M⁻¹ s⁻¹

## TSPGL-LTASG
MMP-9 [1]
  Kobs: 690.17 M⁻¹ s⁻¹
MMP-9 [2]
  relative probability (RP): 19.6268
MMP-2
  Kobs: 12792.1 M⁻¹ s⁻¹

## TVLGN-LTASG
MMP-9 [1]
  Kobs: 690.17 M⁻¹ s⁻¹
MMP-9 [2]
  relative probability (RP): 10.3813
MMP-2
  Kobs: 12792.1 M⁻¹ s⁻¹

## TVPWS-VTASG
MMP-9 [1]
  Kobs: 12792.1 M⁻¹ s⁻¹
MMP-9 [2]
  relative probability (RP): 31.0554
MMP-2
  Kobs: 1071.29 M⁻¹ s⁻¹

## VDVSF-LTASG
MMP-9 [1]
  Kobs: 912.511 M⁻¹ s⁻¹
MMP-9 [2]
  relative probability (RP): 1.252
MMP-2
  Kobs: 8941.32 M⁻¹ s⁻¹

## VEAVA-ITASG
MMP-9 [1]
  Kobs: 4922.1 M⁻¹ s⁻¹
MMP-9 [2]
  relative probability (RP): 21.5568
MMP-2
  Kobs: 5090.5 M⁻¹ s⁻¹

## VFPQG-MTASG
MMP-9 [1]
  Kobs: 8321.48 M⁻¹ s⁻¹
MMP-9 [2]
  relative probability (RP): 46.1377
MMP-2
  Kobs: 2476.66 M⁻¹ s⁻¹

## VGPAF-LTASG
MMP-9 [1]
  Kobs: 12792.1 M⁻¹ s⁻¹
MMP-9 [2]
  relative probability (RP): 38.454
MMP-2
  Kobs: 12792.1 M⁻¹ s⁻¹

## VKPSG-VTASG
MMP-9 [1]
  Kobs: 12792.1 M⁻¹ s⁻¹
MMP-9 [2]
  relative probability (RP): 31.8733
MMP-2
  Kobs: 12792.1 M⁻¹ s⁻¹

## VKPSK-LTASG
MMP-9 [1]
  Kobs: 12792.1 M⁻¹ s⁻¹
MMP-9 [2]
  relative probability (RP): 38.9571
MMP-2
  Kobs: 12792.1 M⁻¹ s⁻¹

## VLFGA-LTASG
MMP-9 [1]
  Kobs: 386.839 M⁻¹ s⁻¹
MMP-9 [2]
  relative probability (RP): 2.95
MMP-2
  Kobs: 8321.48 M⁻¹ s⁻¹

## VLLGN-FTASG
MMP-9 [1]
  Kobs: 690.17 M⁻¹ s⁻¹
MMP-9 [2]
  relative probability (RP): 0.6963
MMP-2
  Kobs: 12792.1 M⁻¹ s⁻¹

## VMPSG-FTASG
MMP-9 [1]
  Kobs: 12792.1 M⁻¹ s⁻¹
MMP-9 [2]
  relative probability (RP): 36.6478
MMP-2
  Kobs: 8321.48 M⁻¹ s⁻¹

## VQLAY-FTASG
MMP-9 [1]
  Kobs: 1030.73 M⁻¹ s⁻¹
MMP-9 [2]
  relative probability (RP): 0.5079
MMP-2
  Kobs: 12792.1 M⁻¹ s⁻¹

## VVPNN-LTASG
MMP-9 [1]
  Kobs: 12792.1 M⁻¹ s⁻¹
MMP-9 [2]
  relative probability (RP): 38.7188
MMP-2
  Kobs: 12792.1 M⁻¹ s⁻¹

## VYPGK-MTASG
MMP-9 [1]
  Kobs: 1239.69 M⁻¹ s⁻¹
MMP-9 [2]
  relative probability (RP): 16.9669
MMP-2
  Kobs: 8941.32 M⁻¹ s⁻¹

## WAINA-LTASG
MMP-9 [1]
  Kobs: 551.253 M⁻¹ s⁻¹
MMP-9 [2]
  relative probability (RP): 1.369
MMP-2
  Kobs: 4922.1 M⁻¹ s⁻¹

## WDIRS-LTASG
MMP-9 [1]
  Kobs: 9740.44 M⁻¹ s⁻¹
MMP-9 [2]
  relative probability (RP): 30.8005
MMP-2
  Kobs: 12792.1 M⁻¹ s⁻¹

## WGTLA-LTASG
MMP-9 [1]
  Kobs: 4613.14 M⁻¹ s⁻¹
MMP-9 [2]
  relative probability (RP): 8.919
MMP-2
  Kobs: 1112.44 M⁻¹ s⁻¹

## WNPSY-LTASG
MMP-9 [1]
  Kobs: 8941.32 M⁻¹ s⁻¹
MMP-9 [2]
  relative probability (RP): 40.8983
MMP-2
  Kobs: 12792.1 M⁻¹ s⁻¹
